Results as given in the supplement of paper PMC10307832.

Assays:
Assay in all cases: relative viability (nuclei count vs DMSO), 5 days (fraction); higher = more cells survive
[1] = compound: CC(C)CCN1c2nc(Nc3cc(F)c(O)c(F)c3)ncc2N(C)C(=O)C1C [BI-D1870] + COc1cccc2cc(-c3nc([C@H]4CC[C@H](C(=O)O)CC4)n4ncnc(N)c34)[nH]c12 [OSI-027] (partner 0.5 µM)
Procedure, shortened: (§1)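 Nuclei were stained with Hoechst during a one-step fixation (final 0.05% Triton X-100, 1% formaldehyde, 1 ug/ml Hoechst) carried out 5 days after dosing, then counted on 4× images. The cells, lung cancer lines in 1536-well plates, had been dosed by pin tool the day after seeding with one drug alone or a fixed anchor-drug dose plus five library-drug doses (not always all listed) in √10 steps. Relative viability is the nuclei count in treated wells divided by that in vehicle wells, and each value is the median of duplicate plates.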

[2] = compound: CC(C)CCN1c2nc(Nc3cc(F)c(O)c(F)c3)ncc2N(C)C(=O)C1C [BI-D1870] + C[C@]1(O)C[C@@H](c2nc(-c3ccc4ccc(-c5ccccc5)nc4c3)c3c(N)nccn32)C1 [Linsitinib] (partner 1 µM)
Procedure, shortened: as §1

[3] = compound: CC(C)CCN1c2nc(Nc3cc(F)c(O)c(F)c3)ncc2N(C)C(=O)C1C [BI-D1870] + N=C(N)NC(=N)NCCc1ccccc1 [Phenformin] (partner 250 µM)
Procedure, shortened: as §1

[4] = compound: O=c1ncccn1[C@@H]1O[C@H](CO)[C@@H](O)[C@H]1O [Zebularine] + CCNC(=O)c1noc(-c2cc(C(C)C)c(O)cc2O)c1-c1ccc(CN2CCOCC2)cc1 [Luminespib] (partner 0.01 µM)
Procedure, shortened: as §1

| Cell Line | relative viability ([1]; first compound 0.04 µM) | relative viability ([1]; first compound 0.1265 µM) | relative viability ([1]; first compound 0.4 µM) | relative viability ([1]; first compound 1.265 µM) | relative viability ([1]; first compound 4 µM) | relative viability ([2]; first compound 0.04 µM) | relative viability ([2]; first compound 0.1265 µM) | relative viability ([2]; first compound 0.4 µM) | relative viability ([2]; first compound 1.265 µM) | relative viability ([2]; first compound 4 µM) | relative viability ([3]; first compound 0.04 µM) | relative viability ([3]; first compound 0.1265 µM) | relative viability ([3]; first compound 0.4 µM) | relative viability ([3]; first compound 1.265 µM) | relative viability ([3]; first compound 4 µM) | relative viability ([4]; first compound 1 µM) | relative viability ([4]; first compound 3.162 µM) | relative viability ([4]; first compound 10 µM) | relative viability ([4]; first compound 31.62 µM) | relative viability ([4]; first compound 100 µM) |
| --- | --- | --- | --- | --- | --- | --- | --- | --- | --- | --- | --- | --- | --- | --- | --- | --- | --- | --- | --- | --- |
| LCLC-97TM1 | 0.682 | 0.61 | 0.557 | 0.727 | 0.472 | 0.238 | 0.158 | 0.19 | 0.244 | 0.193 | 0.458 | 0.472 | 0.396 | 0.417 | 0.453 | 0.806 | 0.777 | 0.427 | 0.241 | 0.21 |
| NCI-H1703 |  |  |  |  |  |  | 0.405 | 0.635 | 0.772 | 0.728 |  |  |  |  |  |  |  |  |  |  |
| LCLC-103H | 0.387 | 0.417 | 0.447 | 0.418 | 0.366 | 1.17 | 1.02 | 1.05 | 1.36 | 1.06 | 0.376 | 0.301 | 0.316 | 0.36 | 0.324 | 1.07 | 0.996 | 0.696 | 0.705 | 0.475 |
| PC-3 [JPC-3] | 0.752 | 0.703 | 0.674 | 0.697 | 0.565 | 0.959 | 0.913 | 0.956 | 1.02 | 0.897 | 0.514 | 0.485 | 0.482 | 0.498 | 0.484 | 0.79 | 0.667 | 0.553 | 0.466 | 0.493 |
| ChaGo-K-1 | 0.652 | 0.55 | 0.547 | 0.559 | 0.538 |  |  |  |  |  | 0.481 | 0.522 | 0.477 | 0.481 | 0.412 | 0.657 | 0.508 | 0.212 | 0.221 | 0.217 |
